How the values were obtained:
Type in all cases: cell-based
[1] = target: T1, STAT3 (Homo sapiens, UniProt P40763); test: STAT3 degradation HiBiT assay (STAT3-HIBIT KI HeLa); settings: STAT3-HIBIT KI HeLa cells, 24 hours
T1 construct: host or cells: HeLa (STAT3-HiBiT CRISPR knock-in clone)
Method: STAT3-HIBIT KI HeLa cell line was purchased from Promega. This cell line is a clone created by using CRISPR-Cas9 to fuse HiBIT to the 3′ end of STAT3 in HeLa cells. DMEM medium and FBS were purchased from Gibco/Thermo Fisher Scientific. STAT3 degradation was determined based on quantification of luminescent signal using Nano-Glo HiBIT Lytic Detection System. In a typical procedure, cells seeded at 20000 cells per well in 96-well white plates (Corning) were incubated with serially diluted compounds for 24 hours at 37° C. with 5% CO2. At the end of treatment, Nano-Glo HiBIT Lytic Detection reagents was added to the wells and luminescence was acquired on TECAN PSARK plate reader. Untreated cells were used as control. Data points were fit with a four-parameter equation to generate a concentration-response curve. IC50 values were calculated using a nonlinear regression analysis of the mean±SD from triplicate.

[2] = system: MOLM-16; test: Cell viability assay (CellTiter-Glo 2.0), MOLM-16; settings: MOLM16; MOLM-16 cells
[3] = system: SU-DHL-1; test: Cell viability assay (CellTiter-Glo 2.0), SU-DHL-1; settings: Homo sapiens, 96 h; SU-DHL-1 cells, 4 days
Method: SU-DHL-1 and SUP-M2 cell viability was determined by CellTiter-Glo 2.0 Cell Viability Assay (Promega). […] In a typical procedure, cells seeded at 1000 cells per well in 384-well white plates (Corning) were incubated with serially diluted compounds for 4 days at 37° C. with 5% CO2. At the end of treatment, CellTiter-Glo 2.0 was added to the wells and luminescence was acquired on TECAN PSARK plate reader. Untreated cells were used as control. Data points were fit with a four-parameter equation to generate a concentration-response curve. IC50 values were calculated using a nonlinear regression analysis of the mean±SD from triplicate.

[4] = target: T2, CBP (Homo sapiens, UniProt Q92793); test: CBP degradation, western blot, 22Rv1; settings: 22Rv1, 5 h
T2 construct: endogenous in cells; host or cells: 22Rv1
T2 sequence (Q92793 whole entry): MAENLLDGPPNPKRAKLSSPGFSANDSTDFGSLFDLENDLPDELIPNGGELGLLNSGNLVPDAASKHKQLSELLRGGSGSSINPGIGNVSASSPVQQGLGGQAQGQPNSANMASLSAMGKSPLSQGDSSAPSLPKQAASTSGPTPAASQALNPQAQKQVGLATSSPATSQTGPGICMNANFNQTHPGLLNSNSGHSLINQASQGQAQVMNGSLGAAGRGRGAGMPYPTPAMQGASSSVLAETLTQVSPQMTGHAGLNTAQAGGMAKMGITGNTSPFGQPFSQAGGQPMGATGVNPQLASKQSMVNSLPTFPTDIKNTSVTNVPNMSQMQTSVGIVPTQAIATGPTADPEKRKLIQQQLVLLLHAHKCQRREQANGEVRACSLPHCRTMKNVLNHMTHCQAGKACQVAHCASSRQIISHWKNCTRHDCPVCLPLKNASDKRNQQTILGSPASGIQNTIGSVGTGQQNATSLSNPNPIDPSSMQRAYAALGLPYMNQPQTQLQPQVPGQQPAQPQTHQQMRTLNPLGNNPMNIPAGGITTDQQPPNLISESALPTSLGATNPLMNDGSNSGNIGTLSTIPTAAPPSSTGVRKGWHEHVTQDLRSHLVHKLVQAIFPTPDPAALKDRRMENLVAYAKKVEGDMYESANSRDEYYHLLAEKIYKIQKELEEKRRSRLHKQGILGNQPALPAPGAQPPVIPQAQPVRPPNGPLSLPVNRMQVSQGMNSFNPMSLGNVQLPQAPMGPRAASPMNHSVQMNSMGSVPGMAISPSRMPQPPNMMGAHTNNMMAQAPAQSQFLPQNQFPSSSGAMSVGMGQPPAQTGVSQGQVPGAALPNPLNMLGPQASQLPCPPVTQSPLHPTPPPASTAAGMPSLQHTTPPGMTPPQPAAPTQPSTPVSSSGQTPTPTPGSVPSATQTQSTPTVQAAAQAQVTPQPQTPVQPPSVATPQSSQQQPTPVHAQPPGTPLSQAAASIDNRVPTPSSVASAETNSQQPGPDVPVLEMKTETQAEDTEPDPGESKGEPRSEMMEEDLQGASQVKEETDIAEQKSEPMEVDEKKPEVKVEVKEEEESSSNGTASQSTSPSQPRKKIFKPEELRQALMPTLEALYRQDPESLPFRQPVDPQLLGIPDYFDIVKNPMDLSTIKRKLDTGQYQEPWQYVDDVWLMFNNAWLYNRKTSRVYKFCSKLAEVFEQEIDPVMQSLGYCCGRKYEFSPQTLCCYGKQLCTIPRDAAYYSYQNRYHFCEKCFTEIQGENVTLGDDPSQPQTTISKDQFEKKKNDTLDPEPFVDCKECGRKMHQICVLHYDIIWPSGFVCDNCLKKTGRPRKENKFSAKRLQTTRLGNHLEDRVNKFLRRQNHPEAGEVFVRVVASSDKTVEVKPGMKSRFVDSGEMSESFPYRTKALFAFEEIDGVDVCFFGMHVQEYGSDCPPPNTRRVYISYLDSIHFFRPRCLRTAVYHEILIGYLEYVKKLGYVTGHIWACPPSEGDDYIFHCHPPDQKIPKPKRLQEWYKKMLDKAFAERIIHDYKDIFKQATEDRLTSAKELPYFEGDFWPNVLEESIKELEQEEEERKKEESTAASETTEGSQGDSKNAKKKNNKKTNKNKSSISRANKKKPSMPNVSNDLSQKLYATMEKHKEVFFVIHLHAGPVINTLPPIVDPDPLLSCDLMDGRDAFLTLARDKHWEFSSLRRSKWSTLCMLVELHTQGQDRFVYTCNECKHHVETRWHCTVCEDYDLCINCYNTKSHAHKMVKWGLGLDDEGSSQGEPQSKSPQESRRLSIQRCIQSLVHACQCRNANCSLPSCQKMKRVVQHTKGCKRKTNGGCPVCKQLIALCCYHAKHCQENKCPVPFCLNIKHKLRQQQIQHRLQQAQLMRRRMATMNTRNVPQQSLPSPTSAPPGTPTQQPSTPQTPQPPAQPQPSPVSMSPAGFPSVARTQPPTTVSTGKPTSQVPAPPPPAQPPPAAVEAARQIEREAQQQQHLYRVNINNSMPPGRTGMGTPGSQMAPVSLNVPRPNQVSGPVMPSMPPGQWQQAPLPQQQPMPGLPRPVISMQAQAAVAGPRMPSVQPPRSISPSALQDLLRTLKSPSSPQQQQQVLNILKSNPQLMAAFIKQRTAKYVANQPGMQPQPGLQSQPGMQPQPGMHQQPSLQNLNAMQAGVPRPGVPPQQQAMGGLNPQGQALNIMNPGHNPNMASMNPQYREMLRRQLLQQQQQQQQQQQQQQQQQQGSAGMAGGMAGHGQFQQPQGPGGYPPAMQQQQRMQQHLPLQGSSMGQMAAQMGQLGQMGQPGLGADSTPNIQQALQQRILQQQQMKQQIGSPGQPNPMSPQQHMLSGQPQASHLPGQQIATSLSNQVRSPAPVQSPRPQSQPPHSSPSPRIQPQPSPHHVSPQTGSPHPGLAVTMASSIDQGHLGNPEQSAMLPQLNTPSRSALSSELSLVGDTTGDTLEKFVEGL
Method: (§1) WesternT Blot Analysis. Western blot analysis was performed essentially as described previously. The cells treated with indicated compounds were lysed in Radioimmunoprecipitation Assay Protein Lysis and Extraction Buffer (25 mmol/L Tris.HCl, pH 7.6, 150 mmol/L NaCl, 1% Nonidet P-40, 1% sodium deoxycholate, and 0.1% sodium dodecyl sulfate) containing proteinase inhibitor cocktail (Roche Diagnostics, Mannheim, Germany). Equal amounts of total protein were electrophoresed through 10% SDS-polyacrylamide gels after determination of protein concentration by BCA assay (Fisher Scientific, Pittsburgh, PA). The separated protein bands were transferred onto PVDF membranes (GE Healthcare Life Sciences, Marlborough, MA) and blotted against different antibodies, as indicated. The blots were scanned, and the band intensities were quantified using GelQuant.NET software provided by biochemlabsolutions.com. The relative mean intensity of target proteins was expressed after normalization to the intensity of glyceraldehyde-3-phosphate dehydrogenase bands.

[5] = target: T3, P300 (Homo sapiens, UniProt Q09472); test: P300 degradation, western blot, 22Rv1; settings: 22Rv1, 5 h
T3 construct: endogenous in cells; host or cells: 22Rv1
Method: as §1

T1 sequence (P40763 whole entry): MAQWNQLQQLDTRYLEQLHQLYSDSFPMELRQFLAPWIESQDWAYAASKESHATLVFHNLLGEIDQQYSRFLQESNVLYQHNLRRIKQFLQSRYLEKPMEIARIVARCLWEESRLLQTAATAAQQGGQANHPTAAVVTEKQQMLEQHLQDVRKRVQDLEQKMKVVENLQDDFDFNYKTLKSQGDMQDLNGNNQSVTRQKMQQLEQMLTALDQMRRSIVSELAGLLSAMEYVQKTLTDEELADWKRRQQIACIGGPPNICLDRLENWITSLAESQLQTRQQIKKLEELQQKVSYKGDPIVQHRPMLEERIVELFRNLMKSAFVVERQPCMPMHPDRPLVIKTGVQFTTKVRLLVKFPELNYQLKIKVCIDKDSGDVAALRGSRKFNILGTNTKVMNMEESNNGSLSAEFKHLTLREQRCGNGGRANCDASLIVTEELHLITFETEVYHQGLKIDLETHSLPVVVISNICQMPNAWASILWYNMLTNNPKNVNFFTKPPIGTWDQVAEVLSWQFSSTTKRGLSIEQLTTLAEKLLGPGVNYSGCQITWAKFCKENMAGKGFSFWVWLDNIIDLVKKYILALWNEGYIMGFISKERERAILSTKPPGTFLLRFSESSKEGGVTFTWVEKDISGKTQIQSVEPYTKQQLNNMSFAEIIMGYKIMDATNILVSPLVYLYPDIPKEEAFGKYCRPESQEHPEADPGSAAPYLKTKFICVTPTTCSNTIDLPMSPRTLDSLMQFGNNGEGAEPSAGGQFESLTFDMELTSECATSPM

Compound | DC50 [1] | Dmax [1] | IC50 [2] | IC50 [3] | CBP Degradation DCmax [4] | DC50 [4] | DC50 [5] | P300 Degradation DCmax [5]
CS(=O)(=O)c1cccc(OC[C@H](CCC(N)=O)NC(=O)[C@@H]2CC[C@@H]3CCN(C(=O)CCCCN4CCC5(CC4)COc4c5ccc5c4CN([C@H]4CCC(=O)NC4=O)C5=O)C[C@H](NC(=O)c4cc5cc(C(F)(F)P(=O)(O)O)ccc5s4)C(=O)N32)c1 [STD 71, ((2-(((5S,8S,10aR)-8-(((S)-5-amino-1-(3-(methylsulfonyl)phenoxy)-5-oxopentan-2-yl)carbamoyl)-3-(5-(7-((S)-2,6-dioxopiperidin-3-yl)-6-oxo-7,8-dihydro-2H,6H-spiro[furo[2,3-e]isoindole-3,4′-piperidin]-1′-yl)pentanoyl)-6-oxodecahydropyrrolo[1,2-a][1,5]diazocin-5-yl)carbamoyl)benzo[b]thiophen-5-yl)difluoromethyl)phosphonic acid] | 100 to 1000 nM | ≥ 80% | 100 to 1000 nM | 1000 to 10000 nM |  |  |  | 
CCS(=O)(=O)c1ccc(CNC(=O)[C@H](CCC(N)=O)NC(=O)[C@@H]2CC[C@@H]3CCN(C(=O)CCCCN4CCC5(CC4)COc4c5ccc5c4CN([C@H]4CCC(=O)NC4=O)C5=O)C[C@H](NC(=O)c4cc5cc(C(=O)P(=O)(O)O)ccc5[nH]4)C(=O)N32)cc1 [STD 85, (2-(((5S,8S,10aR)-8-(((S)-5-amino-1-((4-(ethylsulfonyl)benzyl)amino)-1,5-dioxopentan-2-yl)carbamoyl)-3-(5-(7-((S)-2,6-dioxopiperidin-3-yl)-6-oxo-7,8-dihydro-2H,6H-spiro[furo[2,3-e]isoindole-3,4′-piperidin]-1′-yl)pentanoyl)-6-oxodecahydropyrrolo[1,2-a] [1,5]diazocin-5-yl)carbamoyl)-1H-indole-5-carbonyl)phosphonic acid] | 100 to 1000 nM | ≥ 80% | 100 to 1000 nM | 1000 to 10000 nM |  |  |  | 
NC(=O)CC[C@H](NC(=O)[C@@H]1CC[C@@H]2CCN(C(=O)CCCCN3CCC4(CC3)COc3c4ccc4c3CN([C@H]3CCC(=O)NC3=O)C4=O)C[C@H](NC(=O)c3cc4cc(C(F)(F)P(=O)(O)O)ccc4s3)C(=O)N21)C(=O)NCc1cccc(Cl)c1 [STD 70, ((2-(((5S,8S,10aR)-8-(((S)-5-amino-1-((3-chlorobenzyl)amino)-1,5-dioxopentan-2-yl)carbamoyl)-3-(5-(7-((S)-2,6-dioxopiperidin-3-yl)-6-oxo-7,8-dihydro-2H,6H-spiro[furo[2,3-e]isoindole-3,4′-piperidin]-1′-yl)pentanoyl)-6-oxodecahydropyrrolo[1,2-a][1,5]diazocin-5-yl)carbamoyl)benzo[b]thiophen-5-yl)difluoromethyl)phosphonic acid] | 100 to 1000 nM | ≥ 80% | 1000 to 10000 nM | 1000 to 10000 nM |  |  |  | 
CS(=O)(=O)c1cccc(OC[C@H](CCC(N)=O)NC(=O)[C@@H]2CC[C@@H]3CCN(C(=O)CCCCN4CCC5(CC4)COc4c5ccc5c4CN([C@H]4CCC(=O)NC4=O)C5=O)C[C@H](NC(=O)c4cc5cc(C(=O)P(=O)(O)O)ccc5[nH]4)C(=O)N32)c1 [STD 84, (2-(((5S,8S,10aR)-8-(((S)-5-amino-1-(3-(methylsulfonyl)phenoxy)-5-oxopentan-2-yl)carbamoyl)-3-(5-(7-((S)-2,6-dioxopiperidin-3-yl)-6-oxo-7,8-dihydro-2H,6H-spiro[furo[2,3-e]isoindole-3,4′-piperidin]-1′-yl)pentanoyl)-6-oxodecahydropyrrolo[1,2-a] [1,5]diazocin-5-yl)carbamoyl)-1H-indole-5-carbonyl)phosphonic acid] | 100 to 1000 nM | ≥ 80% | 100 to 1000 nM | 1000 to 10000 nM |  |  |  | 
CC(C)S(=O)(=O)c1ccc(CNC(=O)[C@H](CCC(N)=O)NC(=O)[C@@H]2CC[C@@H]3CCN(C(=O)CCCCN4CCC5(CC4)COc4c5ccc5c4CN([C@H]4CCC(=O)NC4=O)C5=O)C[C@H](NC(=O)c4cc5cc(C(=O)P(=O)(O)O)ccc5[nH]4)C(=O)N32)cc1 [STD 86, (2-(((5S,8S,10aR)-8-(((S)-5-amino-1-((4-(isopropylsulfonyl)benzyl)amino)-1,5-dioxopentan-2-yl)carbamoyl)-3-(5-(7-((S)-2,6-dioxopiperidin-3-yl)-6-oxo-7,8-dihydro-2H,6H-spiro[furo[2,3-e]isoindole-3,4′-piperidin]-1′-yl)pentanoyl)-6-oxodecahydropyrrolo[1,2-a] [1,5]diazocin-5-yl)carbamoyl)-1H-indole-5-carbonyl)phosphonic acid] | 100 to 1000 nM | ≥ 80% | 100 to 1000 nM | 1000 to 10000 nM |  |  |  | 
CS(=O)(=O)c1cccc(OC[C@H](CCC(N)=O)NC(=O)[C@@H]2CC[C@@H]3CCN(C(=O)CCN4CCC5(CC4)COc4c5ccc5c4CN([C@H]4CCC(=O)NC4=O)C5=O)C[C@H](NC(=O)c4cc5cc(C(F)(F)P(=O)(O)O)ccc5s4)C(=O)N32)c1 [STD 69, ((2-(((5S,8S,10aR)-8-(((S)-5-amino-1-(3-(methylsulfonyl)phenoxy)-5-oxopentan-2-yl)carbamoyl)-3-(3-(7-((S)-2,6-dioxopiperidin-3-yl)-6-oxo-7,8-dihydro-2H,6H-spiro[furo[2,3-e]isoindole-3,4′-piperidin]-1′-yl)propanoyl)-6-oxodecahydropyrrolo[1,2-a][1,5]diazocin-5-yl)carbamoyl)benzo[b]thiophen-5-yl)difluoromethyl)phosphonic acid] | 1000 to 10000 nM | 60 to 80% | 1000 to 10000 nM | 1000 to 10000 nM |  |  |  | 
CC(=O)N1CCc2c(c(N3CCCc4cc(-c5cnn(C)c5)c(C(F)F)cc43)nn2[C@H]2CC[C@H](C(=O)N3CCC4(CC3)COc3c4ccc4c3CN([C@H]3CCC(=O)NC3=O)C4=O)CC2)C1 [CPD-005, (S)-3-(1′-((1r,4S)-4-(5-acetyl-3-(7-(difluoromethyl)-6-(1-methyl-1H-pyrazol-4-yl)-3,4-dihydroquinolin-1(2H)-yl)-4,5,6,7-tetrahydro-1H-pyrazolo[4,3-c]pyridin-1-yl)cyclohexane-1-carbonyl)-6-oxo-6,8-dihydro-2H,7H-spiro[furo[2,3-e]isoindole-3,4′-piperidin]-7-yl)piperidine-2,6-dione] |  |  |  |  | A (A (≥90%)) | < 0.1 nM | < 0.1 nM | A (A (≥90%))
CC(=O)N1CCc2c(c(N3CCCc4cc(-c5cnn(C)c5)c(C(F)F)cc43)nn2C2CCC(N3CCC4(CC3)COc3c4ccc4c3CN([C@H]3CCC(=O)NC3=O)C4=O)CC2)C1 (stereo partly drawn) [CPD-003, (S)-3-(1′-(4-(5-acetyl-3-(7-(difluoromethyl)-6-(1-methyl-1H-pyrazol-4-yl)-3,4-dihydroquinolin-1(2H)-yl)-4,5,6,7-tetrahydro-1H-pyrazolo[4,3-c]pyridin-1-yl)cyclohexyl)-6-oxo-6,8-dihydro-2H,7H-spiro[furo[2,3-e]isoindole-3,4′-piperidin]-7-yl)piperidine-2,6-dione] |  |  |  |  | A (A (≥90%)) | < 0.1 nM | < 0.1 nM | A (A (≥90%))
CC(C)S(=O)(=O)c1ccc(CNC(=O)[C@H](CCC(N)=O)NC(=O)[C@@H]2CC[C@@H]3CCN(C(=O)CCCCN4CCC5(CC4)COc4c5ccc5c4CN([C@H]4CCC(=O)NC4=O)C5=O)C[C@H](NC(=O)c4cc5cc(C(F)(F)P(=O)(O)O)ccc5s4)C(=O)N32)cc1 [STD 80, ((2-(((5S,8S,10aR)-8-(((S)-5-amino-1-((4-(isopropylsulfonyl)benzyl)amino)-1,5-dioxopentan-2-yl)carbamoyl)-3-(5-(7-((S)-2,6-dioxopiperidin-3-yl)-6-oxo-7,8-dihydro-2H,6H-spiro[furo[2,3-e]isoindole-3,4′-piperidin]-1′-yl)pentanoyl)-6-oxodecahydropyrrolo[1,2-a][1,5]diazocin-5-yl)carbamoyl)benzo[b]thiophen-5-yl)difluoromethyl)phosphonic acid] | 100 to 1000 nM | ≥ 80% | 100 to 1000 nM | 1000 to 10000 nM |  |  |  | 

From patent publication US20250195484A1, “CEREBLON LIGANDS AND USES THEREOF” (priority 2022, published 2025)
